What was measured:
Type in all cases: cell-based, human
IGFBP5 mRNA = assay: Next Gen sequencing of IGFBP5 mRNA in WM1552C cells
Description: To extend the findings of the MITF knock-down study and to further establish IGFBP5 as a miR-211 target, the effect of miR-211 expression on IGFBP5 mRNA was determined. WM1552C cells were transfected with either an empty vector or the vector encoding and expressing miR-211. Additionally, untransfected WM1552C cells were treated with 5-Aza-2′deoxycytidine (“5-Aza”) to investigate whether miR-211 down-regulates IGFBP5 mRNA production through a genomic methylation mechanism.

A375 cells = assay: cell counts after DFO (simulated hypoxia), A375 and A375/211
Description: (§1) A375 cells and WM1552C, both wild-type and miR-211-expressing, were subjected to treatment with 0, 250 nM, or 400 nM defroxamine (DFO) to simulate hypoxic conditions in order to determine whether miR-211 expression is capable of being regulated by changes in O2 concentrations. Cell counts were performed for each treatment group.
(§2) Relative to untreated cells, survival was about 45% following 250 nM DFO and about 25% following 400 nM DFO. The presence of miR-211 in these cells caused this effect to be greatly exacerbated, reducing survival to about 13% at 250 nM DFO and about 8% at 400 nM DFO. Similarly, for WM1552C cells, survival was about 77% at 250 nM DFO and about 55% at 400 nM DFO, compared to untreated cells (FIG. 21).

SKMEL-28 cells = assay: cell counts after DFO with or without miR-211 inhibitor, SKMEL-28
Description: SKMEL-28 cells, were subjected to the same DFO or hypoxic conditions as described above either in the presence or absence of an miR-211 inhibitor (has-miR-211 Anti-miR™ miRNA Inhibitor, Ambion, catalog numberAM17000, ID AM10168). […] The survival of SKMEL-28 cells was about 64% at 250 nM DFO and about 50% 400 nM DFO, compared to untreated cells. […] The survival of the SKMEL-28 cells treated with the miR-211 inhibitor was about 85% at 250 nM DFO and about 70% at 400 nM DFO.

miR-211 expression [1] = assay: qPCR of miR-211 expression under simulated hypoxia in melanocytes; settings: DFO-simulated hypoxia
Description: (§3) The effect of hypoxia on miR-211 expression was investigated under simulated (DFO) and actual hypoxic conditions in both melanocytes and SKMEL-28 cells. miRNA-211 expression was determined by qPCR.

miR-211 expression [2] = assay: qPCR of miR-211 expression under simulated hypoxia in SKMEL-28 cells; settings: DFO-simulated hypoxia
Description: as §3

WM1552C cells = assay: cell counts after DFO (simulated hypoxia), WM1552C and WM1552C/211
Description: as §1, §2

| Compound | IGFBP5 mRNA expression (IGFBP5 mRNA) | survival relative to untreated cells (A375 cells; A375/211 (miR-211-expressing) cells, 250 nM DFO) | survival relative to untreated cells (A375 cells; A375/211 (miR-211-expressing) cells, 400 nM DFO) | survival relative to untreated cells (A375 cells; A375 cells, 250 nM DFO) | survival relative to untreated cells (A375 cells; A375 cells, 400 nM DFO) | cell death (A375 cells; miR-211-expressing melanoma cells treated with hypoxia mimetic agent) | survival compared to untreated cells (SKMEL-28 cells; 250 nM DFO) | survival compared to untreated cells (SKMEL-28 cells; 400 nM DFO) | miR-211 expression (miR-211 expression [1]) | miR-211 expression (miR-211 expression [2]) | survival compared to untreated cells (WM1552C cells; WM1552C cells, 250 nM DFO) | survival compared to untreated cells (WM1552C cells; WM1552C cells, 400 nM DFO) | survival compared to untreated cells (WM1552C cells; WM1552C/211 (miR-211-expressing) cells, 250 nM DFO) | survival compared to untreated cells (WM1552C cells; WM1552C/211 (miR-211-expressing) cells, 400 nM DFO) |
| --- | --- | --- | --- | --- | --- | --- | --- | --- | --- | --- | --- | --- | --- | --- |
| Nc1ncn([C@H]2C[C@H](O)[C@@H](CO)O2)c(=O)n1 [5-Aza, 5-Aza-2′deoxycytidine, reference compound] | no effect |  |  |  |  |  |  |  |  |  |  |  |  |  |
| CC(=O)N(O)CCCCCNC(=O)CCC(=O)N(O)CCCCCNC(=O)CCC(=O)N(O)CCCCCN [DFO, defroxamine] |  | about 13% | about 8% | about 45% | about 25% | increased cell death | about 64% | about 50% | increases in a dose-dependent manner | neither simulated nor actual hypoxic conditions had a significant effect | about 77% | about 55% | about 40% | about 21% |

Source: patent publication US9994915B2, “miR-211 expression and related pathways in human melanoma” (Sanford-Burnham Medical Research Institute, priority 2010, dated 2018)
